# Measurements taken from patent publication US4868158A, “Method for the production of a macromolecular carrier loaded with a biologically active substance” (Oncholab AB, priority 1985, dated 1989).
# Test system: WEHI-3B cells, a murine monomyelocytic cell line
# Conditions: 1.0 million WEHI-3B cells i.p.; 1.9 mg AD-32/kg/day i.p. for five days
# Protocol: Balb/C mice were injected intraperitonally (i.p.) with 1.0 million WEHI-3B cells, a murine monomyelocytic cell line. […] The AD-32 was administered i.p. dissolved in a mixture of ethanol and castor oil.
structure (smiles),measurement,value
"CCCCC(=O)OCC(=O)C1(O)Cc2c(O)c3c(c(O)c2C(OC2CC(NC(=O)C(F)(F)F)C(O)C(C)O2)C1)C(=O)c1c(OC)cccc1C3=O (stereo not shown) [AD-32, N-trifluoroacetyladriamycin-14-valerate]","ILS, Increased Life Span",2%
